# Results reported in patent US9167822B2, “Antifungal compositions” (DSM IP ASSETS B.V., priority 2012, dated 2015).
# Values joined by “and” are separate entries in the source; they are usually repeats but may differ in a detail not shown here. Identical values can stand only once.
# How the values were obtained:
# Botrytis cinerea [1] = test: Treatment of strawberries: wounded, inoculated with Botrytis cinerea, then dipped in antifungal composition; type: in vivo
# Procedure: (§1) Ten fresh, organic strawberries were used per treatment. Each strawberry was wounded with a 0.5 mm long cut and each wound was inoculated with 10 μl of a Botrytis cinerea suspension containing 1×10^5 of spores/ml. […] The pH of the compositions was 4. A composition without natamycin or bixafen was used as control. The treated strawberries were incubated in a closed box in the dark at 20° C.
# (§2) During incubation, mould growth on the strawberries was assessed in a twofold manner: (i) the number of moulded strawberries per total of 10 strawberries was counted; and (ii) the antifungal activity (in %) of the individual and combined active ingredients was determined by calculating the reduction in mould growth observed on the strawberries treated with the antifungal composition in comparison to the mould growth on the strawberries treated with the control composition. The expected antifungal activity (E in %) of the combined antifungal composition comprising both active ingredients was calculated according to the Colby equation (Colby, 1967): E=X+Y−[(X·Y)/100] wherein X and Y are the observed antifungal activities (in %) of the individual active ingredients X and Y, respectively. If the observed antifungal activity (O in %) of the combination exceeds the expected antifungal activity (E in %) of the combination and the synergy factor O/E is thus >1.0, the combined application of the active ingredients leads to a synergistic antifungal effect.
# The treated strawberries were assessed on mould growth. The antifungal activity (in %) of the individual and combined active ingredients was determined according to the method described in Example 3. […]
# Botrytis cinerea [2] = test: Treatment of strawberries: wounded, dipped in antifungal composition, then inoculated with Botrytis cinerea; type: in vivo; conditions: 1000 ppm bixafen or both
# Procedure: as §1, §2
# After treatment, each strawberry was inoculated with 10 μl of a Botrytis cinerea suspension containing 1×10^5 of spores/ml. The treated strawberries were assessed on mould growth according to the two methods described in Example 3.
# Penicillium italicum [3] = test: Treatment of mandarins wounded and inoculated with Penicillium italicum, then dipped; type: in vivo
# Procedure: Ten fresh, organic mandarins were used per treatment. The peel of each mandarin was wounded once using a cork borer according to the method described by de Lapeyre de Bellaire and Dubois (1987). Subsequently, each wound was inoculated with 10 μl of a Penicillium italicum suspension containing 1×10^5 of spores/ml. […] The pH of the compositions was 4.
# The treated mandarins were incubated in a closed box in the dark at 20° C. and assessed on mould growth during incubation.
# Penicillium italicum [4] = test: Treatment of apples wounded and inoculated with Penicillium italicum, then dipped; type: in vivo; conditions: for Number of moulded apples/total number of 10 apples: 500 ppm natamycin; for Number of moulded apples per total of 10 apples: 250 ppm natamycin
# Procedure: Ten fresh, organic apples were used per treatment. Each apple was wounded once using a cork borer according to the method described by de Lapeyre de Bellaire and Dubois (1987). Subsequently, each wound was inoculated with 10 μl of a Penicillium italicum suspension containing 1×10^6 of spores/ml. […] The pH of the compositions was 4. A composition without natamycin or bixafen was used as control. The treated apples were incubated in a closed box in the dark at 20° C. […]
# During incubation, the treated apples were assessed on mould growth according to the two methods described in Example 3. […]
# Penicillium italicum [5] = test: In vitro antifungal activity, 96-well microtiter plates; type: cell-based; conditions: 25° C.
# Procedure: Subsequently, 100 μl of a Botrytis cinerea suspension prepared in PCB medium was used to inoculated each well with 2.5×10^3 spores/ml.
# After incubation of the microtiter plates at 25° C., the in vitro antifungal activity (%) of the individual active ingredients was assessed by calculating the reduction in mould growth observed in the presence of the active ingredient in comparison to the mould growth observed in the absence of the active ingredient. The expected antifungal activity (E in %) of the active ingredient combination was calculated according to the Colby equation (Colby, 1967): E=X+Y−[(X·Y)/100] wherein X and Y are the observed antifungal activities (in %) of the individual active ingredients X and Y, respectively. If the observed antifungal activity (O in %) of the combination exceeds the expected antifungal activity (E in %) of the combination and the resulting synergy factor O/E is thus >1.0, the combined application of the active ingredients leads to a synergistic antifungal effect.
# Furthermore, Penicillium italicum was used for inoculation.
# [6] = day 3, 500 ppm natamycin, 2000 ppm bixafen or both
# [7] = day 4, 250 ppm natamycin, 250 ppm bixafen or both
# [8] = day 4, 250 ppm natamycin, 500 ppm bixafen or both
# [9] = day 4, 500 ppm natamycin, 2000 ppm bixafen or both
# [10] = day 6, 250 ppm natamycin, 250 ppm bixafen or both
# [11] = day 6, 250 ppm natamycin, 500 ppm bixafen or both
# [12] = day 6, 500 ppm natamycin, 2000 ppm bixafen or both
# [13] = day 7, 250 ppm natamycin, 250 ppm bixafen or both
# [14] = day 7, 250 ppm natamycin, 500 ppm bixafen or both
# [15] = day 9, 250 ppm natamycin, 500 ppm bixafen or both
# [16] = day 9, 500 ppm natamycin, 2000 ppm bixafen or both
# [17] = day 6, 500 ppm natamycin, 1000 ppm bixafen or both
# [18] = day 11, 500 ppm natamycin, 2000 ppm bixafen or both
# [19] = day 14, 500 ppm natamycin, 1000 ppm bixafen or both
# [20] = day 14, 500 ppm natamycin, 2000 ppm bixafen or both
structure (smiles),measurement,setting,value
"C[C@@H]1C/C=C/C=C/C=C/C=C/[C@H](O[C@@H]2O[C@H](C)[C@@H](O)[C@H](N)[C@@H]2O)C[C@@H]2O[C@](O)(C[C@@H](O)C[C@H]3O[C@@H]3/C=C/C(=O)O1)C[C@H](O)[C@H]2C(=O)O [Natamycin, natamycin]",Number of moulded strawberries/total number of 10 strawberries,"Botrytis cinerea [1]; Day 3, 20° C., 250 ppm natamycin, 250 ppm bixafen or both",8 and 8/10
same,Number of moulded strawberries/total number of 10 strawberries,"Botrytis cinerea [1]; Day 3, 20° C., 500 ppm natamycin, 2000 ppm bixafen or both",10 and 10/10
same,Number of moulded strawberries/total number of 10 strawberries,"Botrytis cinerea [1]; Day 4, 20° C., 250 ppm natamycin, 250 ppm bixafen or both",10 and 10/10
same,Number of moulded strawberries/total number of 10 strawberries,"Botrytis cinerea [1]; Day 4, 20° C., 500 ppm natamycin, 2000 ppm bixafen or both",10 and 10/10
same,Number of moulded strawberries/total number of 10 strawberries,"Botrytis cinerea [1]; Day 5, 20° C., 250 ppm natamycin, 250 ppm bixafen or both",10 and 10/10
same,Number of moulded strawberries/total number of 10 strawberries,"Botrytis cinerea [1]; Day 5-6, 20° C., 500 ppm natamycin, 2000 ppm bixafen or both",10 and 10/10
same,Observed antifungal activity O (%),Botrytis cinerea [1]; [6],21%
same,Observed antifungal activity O (%),Botrytis cinerea [1]; [7],6%
same,Observed antifungal activity O (%),Botrytis cinerea [1]; [8],6%
same,Observed antifungal activity O (%),Botrytis cinerea [1]; [9],16%
same,Observed antifungal activity O (%),"Botrytis cinerea [1]; day 5, 250 ppm natamycin, 250 ppm bixafen or both",2%
same,Observed antifungal activity O (%),"Botrytis cinerea [1]; day 5, 500 ppm natamycin, 2000 ppm bixafen or both",3%
same,Observed antifungal activity O (%),Botrytis cinerea [1]; [10],0%
same,Observed antifungal activity O (%),Botrytis cinerea [1]; [11],0%
same,Observed antifungal activity O (%),Botrytis cinerea [1]; [12],0%
same,Observed antifungal activity O (%),Botrytis cinerea [1]; [13],0%
same,Observed antifungal activity O (%),Botrytis cinerea [1]; [14],0%
same,Observed antifungal activity O (%),"Botrytis cinerea [1]; day 7, 500 ppm natamycin, 2000 ppm bixafen or both",0%
same,Observed antifungal activity O (%),Botrytis cinerea [1]; [15],0%
same,Observed antifungal activity O (%),Botrytis cinerea [1]; [16],0%
same,Observed antifungal activity O (%),"Botrytis cinerea [1]; day 10, 250 ppm natamycin, 500 ppm bixafen or both",0%
same,Observed antifungal activity O (%),"Botrytis cinerea [2]; day 3, 500 ppm natamycin",59%
same,Number of moulded wounds/total number of 10 wounds,"Botrytis cinerea [2]; day 5, 20° C., 250 ppm natamycin",10 and 10/10
same,Observed antifungal activity O (%),"Botrytis cinerea [2]; day 5, 500 ppm natamycin",19%
same,Observed antifungal activity O (%),"Botrytis cinerea [2]; day 6, 500 ppm natamycin",12%
same,Observed antifungal activity O (%),"Penicillium italicum [3]; day 3, 250 ppm natamycin, 250 ppm bixafen or both",70%
same,Observed antifungal activity O (%),Penicillium italicum [3]; [7],43%
same,Observed antifungal activity O (%),Penicillium italicum [3]; [8],43%
same,Observed antifungal activity O (%),"Penicillium italicum [3]; day 4, 500 ppm natamycin, 1000 ppm bixafen or both",63%
same,Observed antifungal activity O (%),Penicillium italicum [3]; [9],63%
same,Observed antifungal activity O (%),Penicillium italicum [3]; [10],18%
same,Observed antifungal activity O (%),Penicillium italicum [3]; [11],18%
same,Observed antifungal activity O (%),Penicillium italicum [3]; [17],28%
same,Observed antifungal activity O (%),Penicillium italicum [3]; [12],28%
same,Observed antifungal activity O (%),Penicillium italicum [3]; [13],10%
same,Observed antifungal activity O (%),Penicillium italicum [3]; [14],10%
same,Observed antifungal activity O (%),"Penicillium italicum [3]; day 7, 500 ppm natamycin, 1000 ppm bixafen or both",16%
same,Observed antifungal activity O (%),"Penicillium italicum [3]; day 9, 250 ppm natamycin, 250 ppm bixafen or both",8%
same,Observed antifungal activity O (%),Penicillium italicum [3]; [15],8%
same,Observed antifungal activity O (%),"Penicillium italicum [3]; day 11, 250 ppm natamycin, 500 ppm bixafen or both",13%
same,Observed antifungal activity O (%),Penicillium italicum [3]; [18],13%
same,Observed antifungal activity O (%),"Penicillium italicum [3]; day 13, 250 ppm natamycin, 500 ppm bixafen or both",12%
same,Observed antifungal activity O (%),Penicillium italicum [3]; [19],9%
same,Observed antifungal activity O (%),Penicillium italicum [3]; [20],9%
same,Observed antifungal activity O (%),"Penicillium italicum [3]; day 15, 250 ppm natamycin, 500 ppm bixafen or both",6%
same,Observed antifungal activity O (%),"Penicillium italicum [3]; day 15, 500 ppm natamycin, 1000 ppm bixafen or both",5%
same,Observed antifungal activity O (%),"Penicillium italicum [3]; day 15, 500 ppm natamycin, 2000 ppm bixafen or both",5%
same,Number of moulded apples/total number of 10 apples,"Penicillium italicum [4]; Day 3, 20° C., 1000 ppm bixafen or both",9 and 9/10
same,Number of moulded apples/total number of 10 apples,"Penicillium italicum [4]; Day 3-4, 20° C., 2000 ppm bixafen or both",9 and 9/10
same,Number of moulded apples/total number of 10 apples,"Penicillium italicum [4]; Day 4, 20° C., 1000 ppm bixafen or both",9 and 9/10
same,Number of moulded apples per total of 10 apples,"Penicillium italicum [4]; Day 6, 20° C., 500 ppm bixafen or both",10 and 10/10
same,Number of moulded apples/total number of 10 apples,"Penicillium italicum [4]; Day 6, 20° C., 1000 ppm bixafen or both",10 and 10/10
same,Number of moulded apples/total number of 10 apples,"Penicillium italicum [4]; Day 6, 20° C., 2000 ppm bixafen or both",10 and 10/10
same,Number of moulded apples per total of 10 apples,"Penicillium italicum [4]; Day 6-9, 20° C., 250 ppm bixafen or both",all and 10/10
same,Number of moulded apples per total of 10 apples,"Penicillium italicum [4]; Day 7, 20° C., 500 ppm bixafen or both",10 and 10/10
same,Number of moulded apples/total number of 10 apples,"Penicillium italicum [4]; Day 7, 20° C., 1000 ppm bixafen or both",10 and 10/10
same,Number of moulded apples/total number of 10 apples,"Penicillium italicum [4]; Day 7, 20° C., 2000 ppm bixafen or both",10 and 10/10
same,Number of moulded apples per total of 10 apples,"Penicillium italicum [4]; Day 9, 20° C., 500 ppm bixafen or both",10 and 10/10
same,Number of moulded apples/total number of 10 apples,"Penicillium italicum [4]; Day 9-14, 20° C., 1000 ppm bixafen or both",all and 10/10
same,Number of moulded apples/total number of 10 apples,"Penicillium italicum [4]; Day 9-14, 20° C., 2000 ppm bixafen or both",all and 10/10
same,Number of moulded apples per total of 10 apples,"Penicillium italicum [4]; Day 11-15, 20° C., 250 ppm bixafen or both",all and 10/10
same,Observed antifungal activity O (%),"Penicillium italicum [4]; day 3, 500 ppm natamycin, 1000 ppm bixafen or both",33%
same,Observed antifungal activity O (%),Penicillium italicum [4]; [6],33%
same,Observed antifungal activity O (%),"Penicillium italicum [4]; day 6, 250 ppm natamycin, 250 ppm bixafen or both (bixafen 500 ppm)",38%
same,Observed antifungal activity O (%),Penicillium italicum [4]; [11],38%
same,Observed antifungal activity O (%),Penicillium italicum [4]; [17],6%
same,Observed antifungal activity O (%),Penicillium italicum [4]; [12],6%
same,Observed antifungal activity O (%),Penicillium italicum [4]; [14],42%
same,Observed antifungal activity O (%),"Penicillium italicum [4]; day 9, 250 ppm natamycin, 250 ppm bixafen or both (bixafen 500 ppm)",35%
same,Observed antifungal activity O (%),Penicillium italicum [4]; [15],35%
same,Observed antifungal activity O (%),"Penicillium italicum [4]; day 9, 500 ppm natamycin, 1000 ppm bixafen or both",21%
same,Observed antifungal activity O (%),Penicillium italicum [4]; [16],21%
same,Observed antifungal activity O (%),"Penicillium italicum [4]; day 11, 250 ppm natamycin, 250 ppm bixafen or both (bixafen 500 ppm)",42%
same,Observed antifungal activity O (%),"Penicillium italicum [4]; day 11, 500 ppm natamycin, 1000 ppm bixafen or both",26%
same,Observed antifungal activity O (%),Penicillium italicum [4]; [18],26%
same,Observed antifungal activity O (%),"Penicillium italicum [4]; day 14, 250 ppm natamycin, 250 ppm bixafen or both (bixafen 500 ppm)",49%
same,Observed antifungal activity O (%),Penicillium italicum [4]; [19],30%
same,Observed antifungal activity O (%),Penicillium italicum [4]; [20],30%
same,Observed antifungal activity O (%),"Penicillium italicum [5]; day 10, 0.63 ppm natamycin, 25 ppm isopyrazam or both",0%
same,Observed antifungal activity O (%),"Penicillium italicum [5]; day 10, 1.25 ppm natamycin, 25 ppm bixafen or both",0%
